# Results published in patent publication US7510845B2, “Assay employing G protein-coupled receptor expressed in dorsal root ganglia” (California Institute of Technology, priority 2000, dated 2009).
# pEC50: −log10 of the molar value. “Also recorded” adds a separate entry of the source. Ends that are not written are not given here.
# Legend:
# [1] = target: T1, MRGA1 (Mus musculus, UniProt Q91WW5); experiment: Intracellular Ca2+ release assay (Fura-2), MRGA1-GFP in HEK-Gα15 cells; assay type: cell-based; conditions: for Calcium response of MRGA1-expressing cells to ligand: HEK-Gα15 cells, ligand 1 μM; for Activation of MrgA1 in dose-response experiments: HEK cells expressing Gα15
# T1 construct: cDNAs encoding eight full-length variants of Mrg receptors (mMrgA1-8) are provided; expressed in transfected cells; host or cells: HEK293-Galpha15 (A1) or HEK293 lacking Galpha15 (A4), transient transfection with FuGENE 6
# T1 sequence (Q91WW5 1-304): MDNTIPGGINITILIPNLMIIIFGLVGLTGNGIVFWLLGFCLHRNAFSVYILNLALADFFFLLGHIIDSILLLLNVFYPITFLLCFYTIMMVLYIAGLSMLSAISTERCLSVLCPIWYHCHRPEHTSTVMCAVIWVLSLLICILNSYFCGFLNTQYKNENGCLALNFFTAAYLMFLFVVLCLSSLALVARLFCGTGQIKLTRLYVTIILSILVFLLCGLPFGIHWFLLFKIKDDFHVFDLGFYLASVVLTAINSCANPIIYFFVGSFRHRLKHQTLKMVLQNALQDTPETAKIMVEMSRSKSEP
# Experimental: (§1) To identify ligands for the Mrg receptors, selected MrgA genes were tested in a calcium release assay. MrgA genes, including MrgA1 and MrgA4, were cloned into a eukaryotic expression vector and transfected into human embryonic kidney (HEK) 293 cells. HEK-293 cells were obtained from the ATCC and cultured in DMEM supplemented with 10% fetal bovine serum. An HEK293-Gα15 cell line stably expressing Gα15 was provided by Aurora Biosciences Corporation and grown on Matrigel™ (growth factor reduced Matrigel, Becton Dickinson, diluted 1:200 with serum-free DMEM)-coated flasks and maintained at 37° C. in DMEM (GibcoBRL) supplemented with 10% heat-inactivated fetal bovine serum, 2 mM L-glutamine, 0.1 mM non-essential amino acids, 1 mM sodium pyruvate, 25 mM HEPES and 3 μg/ml blastcidin-S. For transfection, cells were seeded on Matrigel-coated 35 mm glass-bottom dishes (Bioptech Inc., Butler, Pa.). After 16-24 hr, cells were transfected using FuGENE 6 (Roche).
# To increase the sensitivity of the calcium release assay, in some experiments the MRGA-GFP fusion proteins were expressed in HEK 293 cells modified to express Gα15, which couples GPCRs to a signal transduction pathway leading to the release of intracellular free Ca^2+ (Offermann and Simon J Biol Chem 270: 15175-80 (1995)). This calcium release can be monitored ratiometrically using Fura-2 as a fluorescent indicator dye (Tsien et al. Cell Calcium 6: 145-57 (1985)) (FIGS. 11A-C). This heterologous expression system has been previously used to identify ligands for taste receptors (Chandrashekar et al. Cell 100: 703-11 (2000)).
# (§2) Briefly, transfected cells were washed once in Hank's balanced salt solution with 11 mM D-glucose and 10 mM HEPES, pH 7.4 (assay buffer) and loaded with 2 μM Fura-2 AM (Molecular Probes) at room temperature for 90 min, with rotation. Loaded cells were washed twice with assay buffer and placed on a micro-perfusion chamber (Bioptech). The chamber was mounted on top of a Olympus IMT2 inverted microscope, and imaged with an Olympus DPlanApo 40× oil immersion objective lens. Samples were illuminated by a 75 W xenon bulb, and a computer-controlled filter changer (Lambda-10; Shutter Instruments) was used to switch the excitation wavelength. A cooled CCD camera (Photometric) was used in detecting fluorescence. GFP-positive cells within a field were identified using an excitation wavelength of 400 nm, a dichroic 505 nm long-pass filter and an emitter bandpass of 535 nm (Chroma Technology). In the same field, calcium measurements were performed at an excitation wavelength of 340 nm and 380 nm, and an emission wavelength of 510 nm. Agonists were diluted in assay buffer and solution changes accomplished by micro-perfusion pump (Bioptech). Fura-2 fluorescence signals (340 nm, 380 nm and the 340/380 ratio) originating from GFP-positive cells were continuously monitored at 0.4- or 1-second intervals and collected using Axon Imaging Workbench 4.0 software (Axon). Instrument calibration was carried out with standard calcium solutions (Molecular probes) in glass bottom dishes (MatTek Corp.).
# [2] = target: T2, MRGA4 (Mus musculus, UniProt Q91WW2, A204G); experiment: Intracellular Ca2+ release assay, MRGA4 in HEK cells lacking Gα15; assay type: cell-based; conditions: ligand 1 μM
# T2 construct: cDNAs encoding eight full-length variants of Mrg receptors (mMrgA1-8) are provided; expressed in transfected cells; host or cells: HEK293-Galpha15 (A2) or HEK293 lacking Galpha15 (A5), transient transfection with FuGENE 6
# T2 sequence (Q91WW2 9-313 A204G limits assumed): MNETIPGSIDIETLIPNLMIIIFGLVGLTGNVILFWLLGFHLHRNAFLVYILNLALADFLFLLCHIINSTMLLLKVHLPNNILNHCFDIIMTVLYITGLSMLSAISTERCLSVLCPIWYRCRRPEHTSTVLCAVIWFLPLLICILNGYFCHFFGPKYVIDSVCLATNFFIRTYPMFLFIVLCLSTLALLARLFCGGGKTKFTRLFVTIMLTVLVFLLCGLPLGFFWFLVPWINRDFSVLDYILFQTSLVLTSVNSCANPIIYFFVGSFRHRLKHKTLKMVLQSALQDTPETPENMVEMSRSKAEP
# Experimental: as §1, with “(Roche). Transfection efficiencies were estimated by visualization of GFP fused to the C-terminus of MrgA1 and A4, and were typically >60%. Fusing GFP to the C-termini of the MrgA coding sequences additionally allowed for visual confirmation of the intracellular distribution of the receptors and their membrane integration in the transfected cells (FIG. 11D).” for “(Roche).”
# as §2, with “Corp.). […]” for “Corp.).”
# [3] = system: MAS1; experiment: Intracellular Ca2+ release assay (Fura-2), MAS1 in HEK-Gα15 cells; assay type: cell-based; conditions: for Activation of MAS1: HEK-Gα15 cells
# [4] = system: chronic pain models, including neuropathic pain; conditions: intrathecal injection; several chronic pain models; cited from earlier work
# [5] = target: T1, MRGA1; experiment: Intracellular Ca2+ release assay, MRGA1 in HEK cells lacking Gα15; assay type: cell-based; conditions: ligand 1 μM
# Experimental: as §1, with “(Roche). Transfection efficiencies were estimated by visualization of GFP fused to the C-terminus of MrgA1 and A4, and were typically >60%. Fusing GFP to the C-termini of the MrgA coding sequences additionally allowed for visual confirmation of the intracellular distribution of the receptors and their membrane integration in the transfected cells (FIG. 11D).” for “(Roche).”
# as §2, with “Corp.). […]” for “Corp.).”
# [6] = target: T2, MRGA4; experiment: Intracellular Ca2+ release assay (Fura-2), MRGA4-GFP in HEK-Gα15 cells; assay type: cell-based; conditions: HEK cells expressing Gα15
# Experimental: To identify ligands for the Mrg receptors, selected MrgA genes were tested in a calcium release assay. MrgA genes, including MrgA1 and MrgA4, were cloned into a eukaryotic expression vector and transfected into human embryonic kidney (HEK) 293 cells. HEK-293 cells were obtained from the ATCC and cultured in DMEM supplemented with 10% fetal bovine serum. […]
# To increase the sensitivity of the calcium release assay, in some experiments the MRGA-GFP fusion proteins were expressed in HEK 293 cells modified to express Gα15, which couples GPCRs to a signal transduction pathway leading to the release of intracellular free Ca^2+ (Offermann and Simon J Biol Chem 270: 15175-80 (1995)). This calcium release can be monitored ratiometrically using Fura-2 as a fluorescent indicator dye (Tsien et al. Cell Calcium 6: 145-57 (1985)) (FIGS. 11A-C). […]
# Briefly, transfected cells were washed once in Hank's balanced salt solution with 11 mM D-glucose and 10 mM HEPES, pH 7.4 (assay buffer) and loaded with 2 μM Fura-2 AM (Molecular Probes) at room temperature for 90 min, with rotation. […] A cooled CCD camera (Photometric) was used in detecting fluorescence. […] Fura-2 fluorescence signals (340 nm, 380 nm and the 340/380 ratio) originating from GFP-positive cells were continuously monitored at 0.4- or 1-second intervals and collected using Axon Imaging Workbench 4.0 software (Axon). […]
compound,measurement,setting,value
CCCCC/C=C\C/C=C\C/C=C\C/C=C\CCCC(=O)O [Arachidonic Acid],Calcium response of MRGA1-expressing cells to ligand,[1],only very weakly activated
CCCCC[C@H](O)/C=C/[C@H]1[C@H](O)CC(=O)[C@@H]1CCCCCCC(=O)O [Prostaglandin-E1],Calcium response of MRGA1-expressing cells to ligand,[1],only very weakly activated
AGEGLNSQFWSLAAPQRF-NH2 [NPAF],Calcium response of MRGA4-expressing cells to ligand,[2],respond
same,pEC50,"[3]; HEK cells, RF-amide ligands, read-out: Relative efficacy of activation of MAS1",< 6.00
same,Activation of MAS1,[3],did not respond well
same,Antinociceptive effect,[4],long-lasting antinociceptive effects
same,Calcium response of MRGA1-expressing cells to ligand,[5],no response
same,Activation of MrgA1 in dose-response experiments,[1],much less effective
same,Calcium response of MRGA1-expressing cells to ligand,[1],significantly lower
"Angiotensin I: peptide hormone previously reported to activate MAS1 (DRVYIHPFHL; Angiotensin-1; UniProt P01019 25-34, looked up)",Activation of MAS1,[3],No response was detected
"Angiotensin II: peptide hormone previously reported to activate MAS1 (DRVYIHPF; Angiotensin-2; UniProt P01019 25-32, looked up)",Activation of MAS1,[3],No response was detected
"CGRP-II: neuropeptide, calcitonin gene-related peptide",Calcium response of MRGA4-expressing cells to ligand,[2],considerably diminished
same,Calcium response of MRGA1-expressing cells to ligand,[5],considerably diminished
same,Calcium response of MRGA1-expressing cells to ligand,[1],some level of activation; also recorded: strongest responses
NPY: neuropeptide,Calcium response of MRGA4-expressing cells to ligand,[2],lost completely
same,Calcium response of MRGA1-expressing cells to ligand,[5],lost completely
same,Calcium response of MRGA1-expressing cells to ligand,[1],some level of activation; also recorded: strongest responses
Phe-Met-Arg-Phe-amide [FMRFamide],Calcium response of MRGA1-expressing cells to ligand,[1],most efficient responses
same,Calcium response of MRGA1-expressing cells to ligand,[1]; listed as FMRF,strongest responses
"RFRP-1: RFamide ligand produced from a different precursor (MPHSFANLPLRF; ends and bridges not checked; UniProt Q9HCQ7 81-92, looked up)",Activation of MrgA4 in dose-response experiments,[6],Neither receptor showed strong activation
same,Activation of MrgA1 in dose-response experiments,[1],Neither receptor showed strong activation
"RFRP-2: RFamide ligand produced from a different precursor (SAGATANLPLRS; ends and bridges not checked; UniProt Q9HCQ7 101-112, looked up)",Activation of MrgA4 in dose-response experiments,[6],Neither receptor showed strong activation
same,Activation of MrgA1 in dose-response experiments,[1],Neither receptor showed strong activation
SYSMEHFRWGKPVGKKRRPVKVYPNGAEDESAEAFPLEF [ACTH],Calcium response of MRGA4-expressing cells to ligand,[2],considerably diminished
same,Activation of MAS1,[3],Nor did MAS1 respond
same,Calcium response of MRGA1-expressing cells to ligand,[5],considerably diminished
same,Calcium response of MRGA1-expressing cells to ligand,[1],some level of activation; also recorded: strongest responses
neurokinin A: peptide hormone,Calcium response of MRGA1-expressing cells to ligand,[1],did not activate
neurokinin B: peptide hormone,Calcium response of MRGA1-expressing cells to ligand,[1],did not activate
"schistoFLRF: RFamide ligand, SEQ ID NO: 115 (PDVDHVFLRF; ends and bridges not checked)",Calcium response of MRGA1-expressing cells to ligand,[1],weakly activated
